≈ marks a conversion by molar mass, not a printed value. Where two headings read alike, the source gives them in different places.
Assays:
M. suipneumoniae NB12 = assay: MIC against mycoplasma in vitro; format: cell-based; conditions: Mesomycoplasma hyopneumoniae, 144 h; M. suipneumoniae NB12; Friis broth, 0.9% agarose, 6 days, 37° C.; read-out: MIC
M. suipneumoniae JF 435 = assay: MIC against mycoplasma in vitro; format: cell-based; conditions: Mesomycoplasma hyopneumoniae, JF435, 144 h; M. suipneumoniae JF 435; 6 days, 37° C.; read-out: MIC
M. suipneumoniae Str. 11 = assay: MIC against mycoplasma in vitro; format: cell-based; conditions: Mesomycoplasma hyopneumoniae
[1] = system: M. suipneumoniae J2206/183^b; assay: MIC against mycoplasma in vitro; format: cell-based; conditions: Mesomycoplasma hyopneumoniae, 144 h; M. suipneumoniae J2206/183^b; 6 days, 37° C.; read-out: MIC
M. suipneumoniae MS 16 = assay: MIC against mycoplasma in vitro; format: cell-based; conditions: Mesomycoplasma hyopneumoniae, MS16, 144 h
M. suipneumoniae TAM 6N = assay: MIC against mycoplasma in vitro; format: cell-based; conditions: Mesomycoplasma hyopneumoniae, TAM6N, 144 h; M. suipneumoniae TAM 6N; 6 days, 37° C.; read-out: MIC
[2] = system: M. suipneumoniae ATCC 25095; assay: MIC against mycoplasma in vitro; format: cell-based; conditions: Mesomycoplasma hyopneumoniae, ATCC25095, 144 h
M. hyorhinis ATCC 25021 = assay: MIC against mycoplasma in vitro; format: cell-based; conditions: Mesomycoplasma hyorhinis, ATCC25021, 144 h
[3] = system: M. hyosynoviae ATCC 25591; assay: MIC against mycoplasma in vitro; format: cell-based; conditions: 144 h
[4] = system: M. bovigenitalium ATCC 14173; assay: MIC against mycoplasma in vitro; format: cell-based; conditions: 144 h
M. dispar NCTC 10125 = assay: MIC against mycoplasma in vitro; format: cell-based; conditions: 144 h
E. coli ESS = assay: MIC against human bacteria in vitro; format: cell-based; conditions: Escherichia coli
P. mirabilis 889 = assay: MIC against human bacteria in vitro; format: cell-based
K. aerogenes A = assay: MIC against human bacteria in vitro; format: cell-based; conditions: Klebsiella aerogenes; K. aerogenes A; 5% chocolated horse blood agar, 18 hours; read-out: MIC
[5] = system: Ps. aeruginosa NCTC 10662; assay: MIC against human bacteria in vitro; format: cell-based; conditions: Pseudomonas aeruginosa, NCTC10662; Ps. aeruginosa NCTC 10662; 5% chocolated horse blood agar, 18 hours; read-out: MIC
[6] = system: Pasteurella multocida 1633; assay: MIC against human bacteria in vitro; format: cell-based; conditions: Pasteurella multocida 1633; 5% chocolated horse blood agar, 18 hours; read-out: MIC
[7] = system: Haemophilus influenzae Wy21; assay: MIC against human bacteria in vitro; format: cell-based; conditions: Haemophilus influenzae Wy21; 5% chocolated horse blood agar, 18 hours; read-out: MIC
[8] = system: Neisseria catarrhalis 1502; assay: MIC against human bacteria in vitro; format: cell-based; conditions: Neisseria catarrhalis 1502; 5% chocolated horse blood agar, 18 hours; read-out: MIC
Bacillus subtilis 6633 = assay: MIC against human bacteria in vitro; format: cell-based; conditions: Bacillus subtilis 6633; 5% chocolated horse blood agar, 18 hours; read-out: MIC
[9] = system: Corynebacterium xerosis 9755; assay: MIC against human bacteria in vitro; format: cell-based; conditions: Corynebacterium xerosis 9755; 5% chocolated horse blood agar, 18 hours; read-out: MIC
Sarcina lutea 8340 = assay: MIC against human bacteria in vitro; format: cell-based; conditions: Micrococcus luteus; Sarcina lutea 8340; 5% chocolated horse blood agar, 18 hours; read-out: MIC
Staph. aureus Oxford = assay: MIC against human bacteria in vitro; format: cell-based; conditions: Staphylococcus aureus; Staph. aureus Oxford; 5% chocolated horse blood agar, 18 hours; read-out: MIC
Staph. aureus Russell = assay: MIC against human bacteria in vitro; format: cell-based; conditions: Staphylococcus aureus; Staph. aureus Russell; 5% chocolated horse blood agar, 18 hours; read-out: MIC
Staph. aureus W2827 = assay: MIC against human bacteria in vitro; format: cell-based; conditions: Staphylococcus aureus; Staph. aureus W2827; 5% chocolated horse blood agar, 18 hours; read-out: MIC
Strep. faecalis I = assay: MIC against human bacteria in vitro; format: cell-based; conditions: Enterococcus faecalis; Strep. faecalis I; 5% chocolated horse blood agar, 18 hours; read-out: MIC
[10] = system: Strep. pyogenes R80/421-A; assay: MIC against human bacteria in vitro; format: cell-based; conditions: Streptococcus pyogenes; Strep. pyogenes R80/421-A; 5% chocolated horse blood agar, 18 hours; read-out: MIC
Strep. agalactiae 2788-B = assay: MIC against human bacteria in vitro; format: cell-based; conditions: Streptococcus agalactiae; Strep. agalactiae 2788-B; 5% chocolated horse blood agar, 18 hours; read-out: MIC
Strep. spp. 64/848-C = assay: MIC against human bacteria in vitro; format: cell-based; conditions: Strep. spp. 64/848-C; 5% chocolated horse blood agar, 18 hours; read-out: MIC
S. dublin S7 = assay: MIC against veterinary bacteria in vitro; conditions: Salmonella enterica, S7, 18 h
Description: (§1) The activity of the compounds of the Examples against various veterinarily important bacteria, was assayed in vitro using two-fold serial dilutions in Diagnostic Sensitivity Test Agar inoculated with 10^4 organisms.

Past. multocida PA1 = assay: MIC against veterinary bacteria in vitro; conditions: Pasteurella multocida, PA1, 18 h
Description: as §1

[11] = system: Corynebacterium pyogenes CY1; assay: MIC against veterinary bacteria in vitro; conditions: CY1, 18 h
Description: as §1

[12] = system: Staph. aureus B4 (pen. resistant); assay: MIC against veterinary bacteria in vitro; conditions: Staphylococcus aureus, 18 h
Description: as §1

[13] = system: Strep. suis (group D) SPS11; assay: MIC against veterinary bacteria in vitro; conditions: Streptococcus suis, 18 h
Description: as §1

Strep. uberis SPU1 = assay: MIC against veterinary bacteria in vitro; conditions: Streptococcus uberis, SPU1, 18 h
Description: as §1

Strep. agalactiae SPA1 = assay: MIC against veterinary bacteria in vitro; conditions: Streptococcus agalactiae, SPA1, 18 h
Description: as §1

[14] = 144 h, M. suipneumoniae Str. 11, 6 days, 37° C., read-out: MIC
[15] = M. suipneumoniae MS 16, 6 days, 37° C., read-out: MIC
[16] = M. suipneumoniae ATCC 25095, 6 days, 37° C., read-out: MIC
[17] = M. hyorhinis ATCC 25021, 6 days, 37° C., read-out: MIC
[18] = M. hyosynoviae ATCC 25591, 6 days, 37° C., read-out: MIC
[19] = M. bovigenitalium ATCC 14173, 6 days, 37° C., read-out: MIC
[20] = M. dispar NCTC 10125, 6 days, 37° C., read-out: MIC
[21] = E. coli ESS, 5% chocolated horse blood agar, 18 hours, read-out: MIC

Compound	MIC (M. suipneumoniae NB12) [µg/mL]	MIC (M. suipneumoniae JF 435) [µg/mL]	MIC [1] [µg/mL]	MIC (M. suipneumoniae TAM 6N) [µg/mL]	MIC (K. aerogenes A) [µg/mL]	MIC [5] [µg/mL]	MIC [6] [µg/mL]	MIC [7] [µg/mL]	MIC [8] [µg/mL]	MIC (Bacillus subtilis 6633) [µg/mL]	MIC [9] [µg/mL]	MIC (Sarcina lutea 8340) [µg/mL]	MIC (Staph. aureus Oxford) [µg/mL]	MIC (Staph. aureus Russell) [µg/mL]	MIC (Staph. aureus W2827) [µg/mL]	MIC (Strep. faecalis I) [µg/mL]	MIC [10] [µg/mL]	MIC (Strep. agalactiae 2788-B) [µg/mL]	MIC (Strep. spp. 64/848-C) [µg/mL]	MIC (S. dublin S7) [µg/mL]	other results
C/C(=C\c1ncc(-c2ccccc2)s1)C[C@@H]1OC[C@H](C[C@@H]2O[C@H]2[C@@H](C)[C@H](C)O)[C@@H](O)[C@H]1O [Example 29, 2-(1-Normon-2-yl)-5-phenylthiazole A]	10 (≈ 21.8 µM)	> 10	> 10	> 10	> 100	> 100	> 100	50 (≈ 109 µM)	50 (≈ 109 µM)	50 (≈ 109 µM)	> 100	> 100	25 (≈ 54.4 µM)	100 (≈ 218 µM)	50 (≈ 109 µM)	> 100	50 (≈ 109 µM)	50 (≈ 109 µM)	25 (≈ 54.4 µM)	> 80	MIC (M. suipneumoniae Str. 11; [14]): 10 µg/mL (≈ 21.8 µM); MIC (M. suipneumoniae MS 16; [15]): 10 µg/mL (≈ 21.8 µM); MIC [2, 16]: 10 µg/mL (≈ 21.8 µM); MIC (M. hyorhinis ATCC 25021; [17]): 10 µg/mL (≈ 21.8 µM); MIC [3, 18]: > 10 µg/mL; MIC [4]: 1 µg/mL (≈ 2.18 µM); MIC (M. dispar NCTC 10125): 2.5 µg/mL (≈ 5.44 µM); MIC (E. coli ESS; 18 h): > 100 µg/mL; MIC (P. mirabilis 889; Proteus mirabilis, 889, 18 h): > 100 µg/mL; MIC (Past. multocida PA1): > 80 µg/mL; MIC [11]: > 80 µg/mL; MIC [12]: 10 µg/mL (≈ 21.8 µM); MIC [13]: > 80 µg/mL; MIC (Strep. uberis SPU1): 5 µg/mL (≈ 10.9 µM); MIC (Strep. agalactiae SPA1): 40 µg/mL (≈ 87 µM)
C/C(=C\c1ncc(-c2ccc([N+](=O)[O-])cc2)o1)C[C@@H]1OC[C@H](C[C@@H]2O[C@H]2[C@@H](C)[C@H](C)O)[C@@H](O)[C@H]1O [Example 3, 5-p-nitro-phenyl-2-(1-normon-2-yl)-oxazole A]	0.1 (≈ 0.205 µM)	0.25 (≈ 0.512 µM)	0.25 (≈ 0.512 µM)	0.25 (≈ 0.512 µM)	100 (≈ 205 µM)	> 100	0.5 (≈ 1.02 µM)	0.1 (≈ 0.205 µM)	0.5 (≈ 1.02 µM)	0.5 (≈ 1.02 µM)	> 100	> 100	0.2 (≈ 0.409 µM)	5 (≈ 10.2 µM)	1 (≈ 2.05 µM)	50 (≈ 102 µM)	0.5 (≈ 1.02 µM)	0.5 (≈ 1.02 µM)	0.5 (≈ 1.02 µM)	> 80	MIC (M. suipneumoniae Str. 11; [14]): 0.1 µg/mL (≈ 0.205 µM); MIC (M. suipneumoniae MS 16; [15]): 0.05 µg/mL (≈ 0.102 µM); MIC [2, 16]: 0.1 µg/mL (≈ 0.205 µM); MIC (M. hyorhinis ATCC 25021; [17]): 0.05 µg/mL (≈ 0.102 µM); MIC [3, 18]: 0.25 µg/mL (≈ 0.512 µM); MIC [4, 19]: 0.05 µg/mL (≈ 0.102 µM); MIC (M. dispar NCTC 10125; [20]): 0.05 µg/mL (≈ 0.102 µM); MIC (E. coli ESS; [21]): 0.5 µg/mL (≈ 1.02 µM); MIC (P. mirabilis 889; Proteus mirabilis, 889, 18 h): 50 µg/mL (≈ 102 µM); MIC (Past. multocida PA1): 5 µg/mL (≈ 10.2 µM); MIC [11]: 80 µg/mL (≈ 164 µM); MIC [12]: 0.312 µg/mL (≈ 0.639 µM); MIC [13]: 2.5 µg/mL (≈ 5.12 µM); MIC (Strep. uberis SPU1): 0.039 µg/mL (≈ 0.0798 µM); MIC (Strep. agalactiae SPA1): 1.25 µg/mL (≈ 2.56 µM)
C/C(=C\c1nc(-c2ccccc2)c(-c2ccccc2)o1)C[C@@H]1OC[C@H](C[C@@H]2O[C@H]2[C@@H](C)[C@H](C)O)[C@@H](O)[C@H]1O [Example 41, 4,5-Diphenyl-2-(1-normon-2-yl)oxazole A]	> 10	> 10	> 10	> 10	> 100	> 100	25 (≈ 48.1 µM)	25 (≈ 48.1 µM)	25 (≈ 48.1 µM)	100 (≈ 192 µM)	> 100	> 100	100 (≈ 192 µM)	> 100	> 100	> 100	> 100	> 100	100 (≈ 192 µM)	> 80	MIC (M. suipneumoniae Str. 11; [14]): > 10 µg/mL; MIC (M. suipneumoniae MS 16; [15]): > 10 µg/mL; MIC [2, 16]: > 10 µg/mL; MIC (M. hyorhinis ATCC 25021; [17]): > 10 µg/mL; MIC [3, 18]: > 10 µg/mL; MIC [4, 19]: 5 µg/mL (≈ 9.62 µM); MIC (M. dispar NCTC 10125; [20]): > 10 µg/mL; MIC (E. coli ESS; [21]): 50 µg/mL (≈ 96.2 µM); MIC (P. mirabilis 889; Proteus mirabilis, 889, 18 h): > 100 µg/mL; MIC (Past. multocida PA1): 40 µg/mL (≈ 77 µM); MIC [11]: 40 µg/mL (≈ 77 µM); MIC [12]: 40 µg/mL (≈ 77 µM); MIC [13]: > 80 µg/mL; MIC (Strep. uberis SPU1): 10 µg/mL (≈ 19.2 µM); MIC (Strep. agalactiae SPA1): 40 µg/mL (≈ 77 µM)
C/C(=C\c1ncc(-c2ccccc2)o1)C[C@@H]1OC[C@H](C[C@@H]2O[C@H]2[C@@H](C)[C@H](C)O)[C@@H](O)[C@H]1O [Example 1, 2-(1-normon-2-yl)-5-phenyloxazole A]	1 (≈ 2.25 µM)	1 (≈ 2.25 µM)	1 (≈ 2.25 µM)	1 (≈ 2.25 µM)	> 100	> 100	10 (≈ 22.5 µM)	1 (≈ 2.25 µM)	10 (≈ 22.5 µM)	2.5 (≈ 5.64 µM)	> 100	≥ 100	5 (≈ 11.3 µM)	5 (≈ 11.3 µM)	5 (≈ 11.3 µM)	≥ 100	1 (≈ 2.25 µM)	5 (≈ 11.3 µM)	2.5 (≈ 5.64 µM)	> 80	MIC (M. suipneumoniae Str. 11; STR.11, 144 h): 0.5 µg/mL (≈ 1.13 µM); MIC (M. suipneumoniae MS 16): 0.5 µg/mL (≈ 1.13 µM); MIC [2]: 0.5 µg/mL (≈ 1.13 µM); MIC (M. hyorhinis ATCC 25021): 0.5 µg/mL (≈ 1.13 µM); MIC [3]: 0.5 µg/mL (≈ 1.13 µM); MIC (M. dispar NCTC 10125; [20]): 0.1 µg/mL (≈ 0.225 µM); MIC (E. coli ESS; [21]): 10 µg/mL (≈ 22.5 µM); MIC (P. mirabilis 889; Proteus mirabilis, P. mirabilis 889, 5% chocolated horse blood agar, 18 hours, read-out: MIC): > 100 µg/mL; MIC (Past. multocida PA1): 10 µg/mL (≈ 22.5 µM); MIC [11]: 80 µg/mL (≈ 180 µM); MIC [12]: 1.25 µg/mL (≈ 2.82 µM); MIC [13]: 20 µg/mL (≈ 45.1 µM); MIC (Strep. uberis SPU1): 0.625 µg/mL (≈ 1.41 µM); MIC (Strep. agalactiae SPA1): 1.25 µg/mL (≈ 2.82 µM)
